The record followed here is patent US12396461B2, “Functional peptides having antimicrobial activity against phytopathogenic microorganisms” (TOYOTA JIDOSHA KABUSHIKI KAISHA, priority 2019, dated 2025).

Holding throughout (format): cell-based
In assay [1] the test system is Fusarium oxysporum. Further details: key to Plate antimicrobial activity test Fusarium oxysporum, level: a case where hyphae extended to the entire well and no antimicrobial activity was found is defined as “level 0,”; a case where hyphae extended to less than a half of the well and thus the peptide inhibited the growth of the hyphae is defined as “level 1,”; a case where ungerminated spores were present and the peptide partially inhibited the germination is defined as “level 2,”; a case where all spores were ungerminated and the peptide completely inhibited the germination is defined as “level 3.”.

Assay [2] relates to Colletotrichum orbiculare. The arrangement: key to Plate antimicrobial activity test Colletotrichum orbiculare, level: a case where hyphae extended to the entire well and no antimicrobial activity was found is defined as “level 0,”; a case where hyphae extended to less than a half of the well and thus the peptide inhibited the growth of the hyphae is defined as “level 1,”; a case where ungerminated spores were present and the peptide partially inhibited the germination is defined as “level 2,”; a case where all spores were ungerminated and the peptide completely inhibited the germination is defined as “level 3.”. Conditions: 25° C. for 1 day or 2 days, microscopic observation.

Assay [3] concerns Pyricularia oryzae. The arrangement: key to Plate antimicrobial activity test Pyricularia oryzae, level: a case where hyphae extended to the entire well and no antimicrobial activity was found is defined as “level 0,”; a case where hyphae extended to less than a half of the well and thus the peptide inhibited the growth of the hyphae is defined as “level 1,”; a case where ungerminated spores were present and the peptide partially inhibited the germination is defined as “level 2,”; a case where all spores were ungerminated and the peptide completely inhibited the germination is defined as “level 3.”. The following applies: 25° C. for 1 day or 2 days, microscopic observation.

Assay [4] deals with Colletotrichum destructivum. Further details: key to Plate antimicrobial activity test Colletotrichum destructivum, level: a case where hyphae extended to the entire well and no antimicrobial activity was found is defined as “level 0,”; a case where hyphae extended to less than a half of the well and thus the peptide inhibited the growth of the hyphae is defined as “level 1,”; a case where ungerminated spores were present and the peptide partially inhibited the germination is defined as “level 2,”; a case where all spores were ungerminated and the peptide completely inhibited the germination is defined as “level 3.”. Conditions: 25° C. for 1 day or 2 days, microscopic observation.

Assay [5] deals with Botrytis cinerea. Further details: key to Plate antimicrobial activity test Botrytis cinerea, level: a case where hyphae extended to the entire well and no antimicrobial activity was found is defined as “level 0,”; a case where hyphae extended to less than a half of the well and thus the peptide inhibited the growth of the hyphae is defined as “level 1,”; a case where ungerminated spores were present and the peptide partially inhibited the germination is defined as “level 2,”; a case where all spores were ungerminated and the peptide completely inhibited the germination is defined as “level 3.”. The following applies: 25° C. for 1 day or 2 days, microscopic observation.

Where two headings read alike, the source gives them in different places.

Turning to “KTKVKNKK (listed as Solanum lycopersicum) [TsORF6-1-8aa-8, partial peptide of TsORF6-1, 8 amino acid residues]”, the “Plate antimicrobial activity test Fusarium oxysporum, level” value in assay [1] was 0. Besides, the “Plate antimicrobial activity test Colletotrichum orbiculare, level” value in assay [2] (peptide 1 μM), in assay [2] (peptide 10 μM) and in assay [2] (peptide 100 μM) was 0 throughout. The “Plate antimicrobial activity test Pyricularia oryzae, level” value in assay [3] (peptide 1 μM), in assay [3] (peptide 10 μM) and in assay [3] (peptide 100 μM) was 0 each time. Besides, the “Plate antimicrobial activity test Colletotrichum destructivum, level” value in assay [4] (peptide 1 μM), in assay [4] (peptide 10 μM) and in assay [4] (peptide 100 μM) was 0 each time. Besides, the results for the “Plate antimicrobial activity test Botrytis cinerea, level” value in assay [5] (peptide 1 μM), in assay [5] (peptide 10 μM) and in assay [5] (peptide 100 μM) were 0, 0 and 1, respectively.
On to “KVAKMMVK (listed as Solanum lycopersicum) [TsORF6-1-8aa-15, partial peptide of TsORF6-1, 8 amino acid residues]”, for which the “Plate antimicrobial activity test Fusarium oxysporum, level” value in assay [1] is 0. Besides, the “Plate antimicrobial activity test Colletotrichum orbiculare, level” value in assay [2] (peptide 1 μM), in assay [2] (peptide 10 μM) and in assay [2] (peptide 100 μM) was 0 throughout. The “Plate antimicrobial activity test Pyricularia oryzae, level” value in assay [3] (peptide 1 μM), in assay [3] (peptide 10 μM) and in assay [3] (peptide 100 μM) was 0 throughout. For the same substance, the “Plate antimicrobial activity test Colletotrichum destructivum, level” value in assay [4] (peptide 1 μM), in assay [4] (peptide 10 μM) and in assay [4] (peptide 100 μM) was 0 throughout. Moreover, the “Plate antimicrobial activity test Botrytis cinerea, level” value in assay [5] (peptide 1 μM), in assay [5] (peptide 10 μM) and in assay [5] (peptide 100 μM) was 0 each time.
Regarding “KVKNKKVA (listed as Solanum lycopersicum) [TsORF6-1-8aa-10, partial peptide of TsORF6-1, 8 amino acid residues]”, the “Plate antimicrobial activity test Fusarium oxysporum, level” value in assay [1] came out at 0. Also, the “Plate antimicrobial activity test Colletotrichum orbiculare, level” value in assay [2] (peptide 1 μM), in assay [2] (peptide 10 μM) and in assay [2] (peptide 100 μM) was 0 each time. Further, the “Plate antimicrobial activity test Pyricularia oryzae, level” value in assay [3] (peptide 1 μM), in assay [3] (peptide 10 μM) and in assay [3] (peptide 100 μM) was 0 each time. For the same substance, the “Plate antimicrobial activity test Colletotrichum destructivum, level” value in assay [4] (peptide 1 μM), in assay [4] (peptide 10 μM) and in assay [4] (peptide 100 μM) was 0 each time. Besides, the “Plate antimicrobial activity test Botrytis cinerea, level” value in assay [5] (peptide 1 μM), in assay [5] (peptide 10 μM) and in assay [5] (peptide 100 μM) was 0 throughout.
Regarding “MIVVK (listed as Solanum lycopersicum) [TsORF6-1-5aa-4, partial peptide of TsORF6-1, 5 amino acid residues]”, the “Plate antimicrobial activity test Fusarium oxysporum, level” value in assay [1] worked out at 0. Also, the “Plate antimicrobial activity test Colletotrichum orbiculare, level” value in assay [2] (peptide 1 μM) came to 0; in assay [2] (peptide 10 μM) it was 0; in assay [2] (peptide 100 μM) it was 1. Besides, the “Plate antimicrobial activity test Pyricularia oryzae, level” value in assay [3] (peptide 1 μM) was found to be 0; in assay [3] (peptide 10 μM), 0; in assay [3] (peptide 100 μM) it was 1. Also, the “Plate antimicrobial activity test Colletotrichum destructivum, level” value in assay [4] (peptide 1 μM) amounted to 0; in assay [4] (peptide 10 μM), 0; in assay [4] (peptide 100 μM) it was 1. Besides, the “Plate antimicrobial activity test Botrytis cinerea, level” value in assay [5] (peptide 1 μM) came to 0; in assay [5] (peptide 10 μM), 0; in assay [5] (peptide 100 μM), 1.
For “MIVVKTKV (listed as Solanum lycopersicum) [TsORF6-1-8aa-4, partial peptide of TsORF6-1, 8 amino acid residues]”, in assay [1], the “Plate antimicrobial activity test Fusarium oxysporum, level” value came out at 0. Besides, the “Plate antimicrobial activity test Colletotrichum orbiculare, level” value in assay [2] (peptide 1 μM), in assay [2] (peptide 10 μM) and in assay [2] (peptide 100 μM) was 0 each time. The “Plate antimicrobial activity test Pyricularia oryzae, level” value in assay [3] (peptide 1 μM), in assay [3] (peptide 10 μM) and in assay [3] (peptide 100 μM) was 0 in each case. Further, the “Plate antimicrobial activity test Colletotrichum destructivum, level” value in assay [4] (peptide 1 μM), in assay [4] (peptide 10 μM) and in assay [4] (peptide 100 μM) was 0 in each case. In addition, the “Plate antimicrobial activity test Botrytis cinerea, level” value in assay [5] (peptide 1 μM), in assay [5] (peptide 10 μM) and in assay [5] (peptide 100 μM) was 0 throughout.
In the case of “NKKVA (listed as Solanum lycopersicum) [TsORF6-1-5aa-13, partial peptide of TsORF6-1, 5 amino acid residues]”, the “Plate antimicrobial activity test Fusarium oxysporum, level” value in assay [1] came out at 0. Besides, the “Plate antimicrobial activity test Colletotrichum orbiculare, level” value in assay [2] (peptide 1 μM), in assay [2] (peptide 10 μM) and in assay [2] (peptide 100 μM) was 0 each time. The “Plate antimicrobial activity test Pyricularia oryzae, level” value in assay [3] (peptide 1 μM), in assay [3] (peptide 10 μM) and in assay [3] (peptide 100 μM) was 0 in each case. The “Plate antimicrobial activity test Colletotrichum destructivum, level” value in assay [4] (peptide 1 μM), in assay [4] (peptide 10 μM) and in assay [4] (peptide 100 μM) was 0 throughout. Also, the “Plate antimicrobial activity test Botrytis cinerea, level” value in assay [5] (peptide 1 μM), in assay [5] (peptide 10 μM) and in assay [5] (peptide 100 μM) was 0 throughout.
For the substance “NKKVAKMM (listed as Solanum lycopersicum) [TsORF6-1-8aa-13, partial peptide of TsORF6-1, 8 amino acid residues]”, the “Plate antimicrobial activity test Fusarium oxysporum, level” value in assay [1] was 0. The “Plate antimicrobial activity test Colletotrichum orbiculare, level” value in assay [2] (peptide 1 μM), in assay [2] (peptide 10 μM) and in assay [2] (peptide 100 μM) was 0 in each case. Also, the “Plate antimicrobial activity test Pyricularia oryzae, level” value in assay [3] (peptide 1 μM), in assay [3] (peptide 10 μM) and in assay [3] (peptide 100 μM) was 0 in each case. Besides, the “Plate antimicrobial activity test Colletotrichum destructivum, level” value in assay [4] (peptide 1 μM), in assay [4] (peptide 10 μM) and in assay [4] (peptide 100 μM) was 0 each time. For the same substance, the “Plate antimicrobial activity test Botrytis cinerea, level” value in assay [5] (peptide 1 μM), in assay [5] (peptide 10 μM) and in assay [5] (peptide 100 μM) was 0 in each case.
